The results in this text go back to ChEMBL document CHEMBL5291721, “A preclinical secondary pharmacology resource illuminates target-adverse drug reaction associations of marketed drugs” (Nat Commun, 2023).

Each structure is given as a SMILES string.

One assay has as its target Bile salt export pump (Homo sapiens, UniProt O95342). The format is functional.
Another assay deals with T1, Adenosine receptor A1 (Homo sapiens, UniProt P30542).
T1 sequence (P30542 whole entry): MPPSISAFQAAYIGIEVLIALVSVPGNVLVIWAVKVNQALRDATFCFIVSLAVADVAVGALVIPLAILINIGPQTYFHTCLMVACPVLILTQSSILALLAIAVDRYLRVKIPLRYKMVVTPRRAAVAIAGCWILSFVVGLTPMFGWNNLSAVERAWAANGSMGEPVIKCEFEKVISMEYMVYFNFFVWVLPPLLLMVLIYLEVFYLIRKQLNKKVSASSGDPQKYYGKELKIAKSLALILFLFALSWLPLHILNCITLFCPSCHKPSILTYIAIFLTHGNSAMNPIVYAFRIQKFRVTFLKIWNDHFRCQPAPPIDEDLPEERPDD

Assay [1] concerns the target Neuronal acetylcholine receptor subunit alpha-4 (Homo sapiens, UniProt P43681).
In assay [2] the target is T2, 5-hydroxytryptamine receptor 1A (Homo sapiens, UniProt P08908).
T2 sequence (P08908 whole entry): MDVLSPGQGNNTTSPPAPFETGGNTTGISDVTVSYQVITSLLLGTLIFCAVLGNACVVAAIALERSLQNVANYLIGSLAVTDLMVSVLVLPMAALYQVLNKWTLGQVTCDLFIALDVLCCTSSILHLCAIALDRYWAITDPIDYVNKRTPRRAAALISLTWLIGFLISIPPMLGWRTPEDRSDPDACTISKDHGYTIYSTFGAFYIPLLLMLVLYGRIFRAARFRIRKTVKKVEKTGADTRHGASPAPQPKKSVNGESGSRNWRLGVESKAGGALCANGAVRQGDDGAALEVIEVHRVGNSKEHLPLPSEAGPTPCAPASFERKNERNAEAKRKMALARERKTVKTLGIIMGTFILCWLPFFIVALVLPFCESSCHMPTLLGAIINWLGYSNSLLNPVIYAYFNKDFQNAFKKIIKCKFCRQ
Format: functional, cell-based.

Assay [3] deals with 5-hydroxytryptamine receptor 2B (Homo sapiens, UniProt P41595). The format is functional, cell-based.
Chain of 5-hydroxytryptamine receptor 2B (P41595 whole entry): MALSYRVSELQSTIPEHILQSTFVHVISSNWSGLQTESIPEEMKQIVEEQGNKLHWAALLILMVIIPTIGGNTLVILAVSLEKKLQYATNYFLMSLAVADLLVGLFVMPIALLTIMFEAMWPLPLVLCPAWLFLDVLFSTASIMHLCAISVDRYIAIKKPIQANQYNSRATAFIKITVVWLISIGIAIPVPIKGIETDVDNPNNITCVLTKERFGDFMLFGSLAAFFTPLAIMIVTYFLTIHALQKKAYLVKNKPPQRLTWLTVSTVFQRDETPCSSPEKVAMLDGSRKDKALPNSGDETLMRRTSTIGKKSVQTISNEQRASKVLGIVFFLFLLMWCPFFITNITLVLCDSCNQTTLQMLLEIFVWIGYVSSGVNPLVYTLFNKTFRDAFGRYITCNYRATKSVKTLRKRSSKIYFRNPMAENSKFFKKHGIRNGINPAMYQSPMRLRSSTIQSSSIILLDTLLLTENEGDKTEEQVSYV
The target in assay [4] is T3, 5-hydroxytryptamine receptor 2C (Homo sapiens, UniProt P28335).
T3 sequence (P28335 whole entry): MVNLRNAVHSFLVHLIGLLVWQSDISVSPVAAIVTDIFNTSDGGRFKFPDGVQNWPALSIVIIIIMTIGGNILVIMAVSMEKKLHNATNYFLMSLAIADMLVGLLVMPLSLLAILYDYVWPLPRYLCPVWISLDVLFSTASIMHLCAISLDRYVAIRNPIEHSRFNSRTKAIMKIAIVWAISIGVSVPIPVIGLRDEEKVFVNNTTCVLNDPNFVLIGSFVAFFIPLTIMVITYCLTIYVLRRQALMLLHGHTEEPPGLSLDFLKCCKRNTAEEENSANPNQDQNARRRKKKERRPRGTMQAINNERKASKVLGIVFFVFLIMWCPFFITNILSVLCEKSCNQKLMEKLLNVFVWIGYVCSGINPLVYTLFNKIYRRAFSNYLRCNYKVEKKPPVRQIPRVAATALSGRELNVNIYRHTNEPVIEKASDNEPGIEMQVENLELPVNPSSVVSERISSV

The next assay addresses Motilin receptor (Homo sapiens, UniProt O43193).
Assay [5] has as its target Delta-type opioid receptor (Homo sapiens, UniProt P41143).
The target in assay [6] is T4, Equilibrative nucleoside transporter 1 (Homo sapiens, UniProt Q99808).
T4 sequence (Q99808 whole entry): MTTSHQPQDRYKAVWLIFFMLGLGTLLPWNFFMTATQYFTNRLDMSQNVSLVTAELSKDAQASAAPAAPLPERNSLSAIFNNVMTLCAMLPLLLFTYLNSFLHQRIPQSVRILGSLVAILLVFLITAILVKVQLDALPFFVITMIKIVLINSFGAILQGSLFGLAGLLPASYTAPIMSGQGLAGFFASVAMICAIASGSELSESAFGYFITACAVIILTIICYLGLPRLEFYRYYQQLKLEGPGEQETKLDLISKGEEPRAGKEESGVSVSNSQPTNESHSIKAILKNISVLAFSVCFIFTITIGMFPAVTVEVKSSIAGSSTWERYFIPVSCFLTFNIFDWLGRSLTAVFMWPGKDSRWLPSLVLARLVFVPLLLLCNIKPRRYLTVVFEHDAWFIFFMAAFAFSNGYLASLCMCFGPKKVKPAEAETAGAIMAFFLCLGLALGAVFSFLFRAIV

Assay [7] concerns the target T5, Amine oxidase [flavin-containing] A (Homo sapiens, UniProt P21397).
T5 sequence (P21397 whole entry): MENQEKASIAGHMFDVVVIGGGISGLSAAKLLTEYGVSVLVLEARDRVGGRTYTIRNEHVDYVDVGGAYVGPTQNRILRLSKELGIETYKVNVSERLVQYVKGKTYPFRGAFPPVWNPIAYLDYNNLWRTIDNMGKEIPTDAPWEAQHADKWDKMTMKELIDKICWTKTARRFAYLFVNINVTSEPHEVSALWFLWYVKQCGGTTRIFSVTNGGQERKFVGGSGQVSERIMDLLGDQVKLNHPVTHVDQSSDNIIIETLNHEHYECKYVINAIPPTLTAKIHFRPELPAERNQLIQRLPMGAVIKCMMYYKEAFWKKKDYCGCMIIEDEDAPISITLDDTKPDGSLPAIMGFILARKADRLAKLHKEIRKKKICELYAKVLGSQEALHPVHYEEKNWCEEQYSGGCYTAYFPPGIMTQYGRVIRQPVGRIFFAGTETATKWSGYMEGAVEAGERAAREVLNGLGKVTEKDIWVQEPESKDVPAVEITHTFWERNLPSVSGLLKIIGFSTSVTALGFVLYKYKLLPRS
The format is functional.

Assay [8] addresses cGMP-inhibited 3',5'-cyclic phosphodiesterase 3A (Homo sapiens, UniProt Q14432). Format: functional.
Also: assay procedure not described here.

Chain of Neuronal acetylcholine receptor subunit alpha-4 (P43681 whole entry): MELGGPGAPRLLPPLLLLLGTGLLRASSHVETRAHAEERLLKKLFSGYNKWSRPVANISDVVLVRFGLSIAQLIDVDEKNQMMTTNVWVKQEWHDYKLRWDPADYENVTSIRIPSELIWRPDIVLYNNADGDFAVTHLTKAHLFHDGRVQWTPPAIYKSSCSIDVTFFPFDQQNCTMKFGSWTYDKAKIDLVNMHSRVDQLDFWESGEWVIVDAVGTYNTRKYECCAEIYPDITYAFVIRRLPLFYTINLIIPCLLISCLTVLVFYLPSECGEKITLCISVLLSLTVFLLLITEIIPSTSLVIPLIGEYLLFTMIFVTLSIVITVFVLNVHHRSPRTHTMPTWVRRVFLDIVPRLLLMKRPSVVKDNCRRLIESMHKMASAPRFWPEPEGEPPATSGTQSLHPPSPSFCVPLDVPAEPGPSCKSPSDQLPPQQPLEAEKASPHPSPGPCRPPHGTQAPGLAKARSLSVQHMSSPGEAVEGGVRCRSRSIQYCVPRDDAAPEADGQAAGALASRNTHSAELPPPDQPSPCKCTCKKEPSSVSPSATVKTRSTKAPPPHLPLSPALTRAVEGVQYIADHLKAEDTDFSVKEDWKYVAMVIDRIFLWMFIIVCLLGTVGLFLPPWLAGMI
Chain of Motilin receptor (O43193 whole entry): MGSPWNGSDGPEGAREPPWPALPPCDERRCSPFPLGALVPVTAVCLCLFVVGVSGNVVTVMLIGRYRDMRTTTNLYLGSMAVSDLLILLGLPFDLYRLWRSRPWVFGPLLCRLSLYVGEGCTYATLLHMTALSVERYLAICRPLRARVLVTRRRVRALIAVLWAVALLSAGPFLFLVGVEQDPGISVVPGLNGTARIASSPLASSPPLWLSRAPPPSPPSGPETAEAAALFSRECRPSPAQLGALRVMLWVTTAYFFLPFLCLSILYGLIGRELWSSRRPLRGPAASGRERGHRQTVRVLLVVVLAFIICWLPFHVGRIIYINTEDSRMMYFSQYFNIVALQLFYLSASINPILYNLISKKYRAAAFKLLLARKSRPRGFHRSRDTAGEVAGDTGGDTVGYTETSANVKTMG
Chain of Bile salt export pump (O95342 whole entry): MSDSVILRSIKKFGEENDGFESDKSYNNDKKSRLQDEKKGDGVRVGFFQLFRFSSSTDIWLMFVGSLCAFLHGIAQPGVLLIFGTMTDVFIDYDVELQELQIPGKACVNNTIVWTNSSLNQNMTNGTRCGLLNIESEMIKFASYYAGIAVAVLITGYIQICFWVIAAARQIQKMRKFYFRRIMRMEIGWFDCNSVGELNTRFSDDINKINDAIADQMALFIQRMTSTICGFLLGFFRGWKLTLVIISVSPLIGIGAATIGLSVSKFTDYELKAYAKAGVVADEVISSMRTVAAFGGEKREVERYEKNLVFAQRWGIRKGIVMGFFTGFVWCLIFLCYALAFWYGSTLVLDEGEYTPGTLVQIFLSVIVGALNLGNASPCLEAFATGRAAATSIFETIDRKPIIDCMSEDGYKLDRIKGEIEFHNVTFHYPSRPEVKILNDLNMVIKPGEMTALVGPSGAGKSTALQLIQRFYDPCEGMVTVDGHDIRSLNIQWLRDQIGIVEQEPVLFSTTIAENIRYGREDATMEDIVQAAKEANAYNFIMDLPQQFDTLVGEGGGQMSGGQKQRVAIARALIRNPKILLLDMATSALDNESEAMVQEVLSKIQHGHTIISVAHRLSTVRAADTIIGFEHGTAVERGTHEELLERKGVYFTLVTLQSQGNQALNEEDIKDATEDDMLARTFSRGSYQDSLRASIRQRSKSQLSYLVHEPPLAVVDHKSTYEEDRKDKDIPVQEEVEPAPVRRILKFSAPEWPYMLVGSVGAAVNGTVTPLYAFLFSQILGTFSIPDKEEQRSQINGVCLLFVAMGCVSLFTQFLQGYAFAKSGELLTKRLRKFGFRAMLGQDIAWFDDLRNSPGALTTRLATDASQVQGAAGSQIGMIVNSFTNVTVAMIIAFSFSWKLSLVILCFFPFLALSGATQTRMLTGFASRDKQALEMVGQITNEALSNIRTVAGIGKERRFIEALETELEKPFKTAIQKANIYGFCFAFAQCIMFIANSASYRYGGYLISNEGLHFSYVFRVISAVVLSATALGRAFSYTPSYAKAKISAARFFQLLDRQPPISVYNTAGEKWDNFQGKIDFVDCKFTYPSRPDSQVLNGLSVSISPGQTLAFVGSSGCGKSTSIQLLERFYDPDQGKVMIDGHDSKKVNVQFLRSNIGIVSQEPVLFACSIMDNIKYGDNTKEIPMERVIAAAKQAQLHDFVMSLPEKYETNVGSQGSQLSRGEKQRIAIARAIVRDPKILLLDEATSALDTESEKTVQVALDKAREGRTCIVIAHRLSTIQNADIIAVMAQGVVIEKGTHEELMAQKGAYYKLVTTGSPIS
Chain of Delta-type opioid receptor (P41143 whole entry): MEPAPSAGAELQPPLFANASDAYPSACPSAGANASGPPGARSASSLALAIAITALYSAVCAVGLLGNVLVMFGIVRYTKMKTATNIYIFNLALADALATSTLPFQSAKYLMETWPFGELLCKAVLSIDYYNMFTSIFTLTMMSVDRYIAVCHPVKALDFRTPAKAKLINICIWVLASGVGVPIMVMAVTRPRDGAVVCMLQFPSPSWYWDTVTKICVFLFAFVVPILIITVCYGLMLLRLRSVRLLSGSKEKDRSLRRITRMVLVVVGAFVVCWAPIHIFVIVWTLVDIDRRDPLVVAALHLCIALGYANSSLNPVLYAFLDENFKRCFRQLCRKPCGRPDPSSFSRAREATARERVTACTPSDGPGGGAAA
Chain of cGMP-inhibited 3',5'-cyclic phosphodiesterase 3A (Q14432 whole entry): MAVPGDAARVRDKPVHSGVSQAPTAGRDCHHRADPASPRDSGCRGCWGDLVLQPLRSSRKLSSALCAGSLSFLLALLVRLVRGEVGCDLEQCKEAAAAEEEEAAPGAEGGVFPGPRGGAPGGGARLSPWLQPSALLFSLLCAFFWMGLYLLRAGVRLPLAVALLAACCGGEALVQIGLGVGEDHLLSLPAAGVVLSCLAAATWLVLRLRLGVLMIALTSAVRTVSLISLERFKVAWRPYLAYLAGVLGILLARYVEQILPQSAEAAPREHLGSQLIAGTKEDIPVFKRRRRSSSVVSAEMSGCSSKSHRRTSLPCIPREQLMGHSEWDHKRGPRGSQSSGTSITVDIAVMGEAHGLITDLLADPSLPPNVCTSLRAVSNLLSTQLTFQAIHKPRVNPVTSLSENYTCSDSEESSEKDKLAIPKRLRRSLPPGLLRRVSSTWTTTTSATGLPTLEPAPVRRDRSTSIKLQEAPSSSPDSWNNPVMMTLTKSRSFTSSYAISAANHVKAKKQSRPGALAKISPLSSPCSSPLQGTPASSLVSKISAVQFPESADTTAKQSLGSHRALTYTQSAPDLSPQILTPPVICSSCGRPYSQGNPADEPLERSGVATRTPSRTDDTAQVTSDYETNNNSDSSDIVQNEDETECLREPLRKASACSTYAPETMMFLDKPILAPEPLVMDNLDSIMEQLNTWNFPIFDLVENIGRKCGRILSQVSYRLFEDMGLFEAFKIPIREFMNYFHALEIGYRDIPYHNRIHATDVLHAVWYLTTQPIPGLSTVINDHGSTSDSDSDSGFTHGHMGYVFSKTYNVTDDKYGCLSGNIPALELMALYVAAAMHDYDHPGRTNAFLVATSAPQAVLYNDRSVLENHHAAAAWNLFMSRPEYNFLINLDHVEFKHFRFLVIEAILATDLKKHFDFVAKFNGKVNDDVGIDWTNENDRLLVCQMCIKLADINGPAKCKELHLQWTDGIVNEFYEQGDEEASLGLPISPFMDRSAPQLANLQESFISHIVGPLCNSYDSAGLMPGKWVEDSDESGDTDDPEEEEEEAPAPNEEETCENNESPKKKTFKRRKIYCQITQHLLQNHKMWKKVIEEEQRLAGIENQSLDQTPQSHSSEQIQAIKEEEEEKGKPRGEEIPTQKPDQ

`CC(N)Cc1ccccc1` (stereo not given) [AMPHETAMINE]: the concentration at half-maximal activity (AC50) at Bile salt export pump was over 300 µM; on Adenosine receptor A1, 18 µM; in assay [1], over 30 µM; in [2], over 30 µM; in assay [3], over 30 µM; in assay [4], over 30 µM. The AC50 (on Motilin receptor; in assay [5]; in assay [6]; in assay [7]; in assay [8]) was over 30 µM in each case.
Consider `CCN(CC)CCNC(=O)c1cc(Cl)c(N)cc1OC` [METOCLOPRAMIDE], for which the concentration at half-maximal activity (AC50) on Bile salt export pump was over 300 µM; on Adenosine receptor A1, over 30 µM; in [1] it was over 10 µM; in [2] it was over 10 µM; in assay [3] it was over 10 µM; in assay [4] it was over 10 µM. Besides, the half-maximal activity concentration (AC50) at Motilin receptor is over 10 µM; in assay [5], over 30 µM; in [6] it was over 30 µM; in assay [7], over 10 µM; in [8], over 30 µM.
In the case of `C[C@H]1O[C@H](O[C@H]2[C@H](O)[C@@H](O)[C@@H](O[C@H]3[C@H](O)[C@@H](O)C(O)O[C@@H]3CO)O[C@@H]2CO)[C@H](O)[C@@H](O)[C@@H]1N[C@H]1C=C(CO)[C@@H](O)[C@H](O)[C@H]1O` (stereo not given in full) [ACARBOSE], the AC50 at Bile salt export pump is over 300 µM; at Adenosine receptor A1 it was over 30 µM; in assay [1], over 30 µM; in assay [2] it was over 30 µM; in assay [3] it was over 30 µM; in [4], over 30 µM. Further, the half-maximal activity concentration (AC50) on Motilin receptor is over 30 µM; in assay [5] it was over 10 µM; in assay [6], over 30 µM; in assay [7], over 10 µM; in assay [8] it was over 30 µM.
Consider `COc1ccc2c(c1)C(=O)N(CCc1ccc(S(=O)(=O)NC(=O)NC3CCCCC3)cc1)C(=O)C2(C)C` [GLIQUIDONE], for which the AC50 on Bile salt export pump was 1.7 µM; on Adenosine receptor A1, over 30 µM; in [1], over 30 µM; in assay [2] it was over 30 µM; in assay [3], over 30 µM; in [4], over 30 µM. Besides, the AC50 on Motilin receptor was over 30 µM; in assay [5], over 30 µM; in assay [6] it was over 30 µM; in assay [7], over 30 µM; in [8] it was 5.3 µM.
Regarding `COC(=O)C1=C(C)NC(C)=C(C(=O)OCC(C)C)C1c1ccccc1[N+](=O)[O-]` (stereo not given) [NISOLDIPINE], the AC50 on Bile salt export pump is 8 µM; at Adenosine receptor A1, 20.4 µM; in assay [1] it was over 10 µM; in [2], over 10 µM; in [3] it was over 10 µM; in assay [4] it was over 30 µM. Also, the AC50 at Motilin receptor is over 10 µM; in [5] it was over 30 µM; in assay [6], over 10 µM; in assay [7], over 10 µM; in [8] it was 6.2 µM.
